Reference: article PMC11191095, “QSAR Reveals Decreased Lipophilicity of Polar Residues Determines the Selectivity of Antimicrobial Peptide Activity” (ACS Omega, 2024)
≈ marks a conversion by molar mass, not a printed value. Where a SMILES comes first, the peptide text is derived from it.

Columns and labels:
Assay in all cases: microbe, parasite or virus in culture
[1] = tested on: P. aeruginosa NCTC 13437; type: cell-based, Pseudomonas aeruginosa; conditions: for Modal MIC: P. aeruginosa NCTC 13437 (R)
Description: (§1) Antimicrobial activity was evaluated against a panel of 18 pathogens consisting of eight Gram-negative strains (E. coli NCTC 12923, E. coli LEC001, Pseudomonas aeruginosa PAO1, P. aeruginosa NCTC 13437, Acinetobacter baumannii ATCC 17978, A. baumannii AYE, Klebsiella pneumoniae M6, K. pneumoniae NCTC 13368), four Gram-positive strains (Staphylococcus aureus ATCC 9144, S. aureus NCTC 13616, S. aureus USA300, S. aureus 1199B) and six fungi (Candida auris TDG 1912, C. albicans NCPF 8018, C. krusei NCPF 3876, C. tropicalis NCPF 8760, and C. parapsilosis NCPF 3209). Pathogens were grown in noncation adjusted Mueller Hinton broth (MHB, for bacteria) or Roswell Park Memorial Institute (RPMI 1640) + 2% glucose (for fungi) at 37 °C with 180 rpm shaking and maintained on solid media (tryptic soy agar for bacteria and Sabouraud dextrose agar for fungi). For an antibiogram, see Suppl.
(§2) The 46 peptides were serially diluted (128 to 2 μg/mL) in media down polypropylene 96-well plates. Bacteria or fungi, diluted from an overnight culture to an OD600 of 0.01, were added to the serially diluted peptides at a 1:1 ratio resulting in a starting cell density of ∼5 × 10^5 CFU/mL. Plates were incubated at 37 °C for 20 h, and the optical density was determined spectrophotometrically at 600 nm. Minimum inhibition concentrations (MICs) were determined from a minimum of three biological repeats and are reported in μg/mL as well as μM. […] The MIC50 or MIC90 is defined as the lowest peptide concentration that results in 50% or 90% growth inhibition over a 20 h treatment period, respectively.

[2] = tested on: A. baumannii AYE; type: cell-based, Acinetobacter baumannii; conditions: for Modal MIC: A. baumannii AYE (R)
Description: as §1, §2

[3] = tested on: K. pneumoniae NCTC 13368; type: cell-based, Klebsiella pneumoniae; conditions: for Modal MIC: K. pneumoniae NCTC 13368 (R)
Description: as §1, §2

[4] = tested on: S. aureus (MRSA) 1199B; type: cell-based, Staphylococcus aureus; conditions: for Modal MIC: S. aureus (MRSA) 1199B (R)
Description: as §1, §2

[5] = tested on: S. aureus (MRSA) NCTC 13616; type: cell-based, Staphylococcus aureus; conditions: for Modal MIC: S. aureus (MRSA) NCTC 13616 (R)
Description: as §1, §2

[6] = tested on: S. aureus (MRSA) USA300; type: cell-based, Staphylococcus aureus; conditions: S. aureus (MRSA) USA300 (R)
Description: as §1, §2

[7] = tested on: C. auris TDG 1912; type: cell-based, Candida auris; conditions: TDG 1912, 20 h
Description: as §1, §2

[8] = tested on: C. albicans NCPF 3281; type: cell-based; conditions: NCPF 3281, 20 h
Description: as §1, §2

[9] = tested on: C. glabrata NCPF 8018; type: cell-based; conditions: NCPF 8018, 20 h
Description: as §1, §2

[10] = tested on: C. krusei NCPF 3876; type: cell-based; conditions: NCPF 3876, 20 h
Description: as §1, §2

[11] = tested on: C. parapsilosis NCPF 3209; type: cell-based; conditions: NCPF 3209, 20 h
Description: as §1, §2

[12] = tested on: C. tropicalis NCPF 8760; type: cell-based; conditions: NCPF 8760, 20 h
Description: as §1, §2

[13] = tested on: E. coli LEC001; type: cell-based, Escherichia coli
Description: as §1, §2

[14] = tested on: E. coli NCTC 12923; type: cell-based, Escherichia coli
Description: as §1, §2

[15] = tested on: P. aeruginosa PAO1; type: cell-based, Pseudomonas aeruginosa
Description: as §1, §2

[16] = tested on: A. baumannii ATCC 17978; type: cell-based, Acinetobacter baumannii
Description: as §1, §2

[17] = tested on: K. pneumoniae M6; type: cell-based, Klebsiella pneumoniae
Description: as §1, §2

[18] = tested on: S. aureus (MSSA) ATCC 9144; type: cell-based, Staphylococcus aureus; conditions: 20 h
Description: as §1, §2

[19] = MHB, 37 °C, 20 h, OD600, min. three biological repeats

Compound: CC[C@H](C)[C@H](NC(=O)[C@@H](N)CCCCN)C(=O)N[C@@H](C)C(=O)N[C@@H](CCCCN)C(=O)N[C@H](C(=O)N[C@@H](C)C(=O)N[C@@H](CC(C)C)C(=O)N[C@@H](CCCCN)C(=O)N[C@@H](C)C(=O)N[C@@H](CC(C)C)C(N)=O)C(C)C [DRAMP02273a] (H-KIAKVALKAL-NH2)
- Modal MIC [1, 19]: > 128 µg/mL
- Modal MIC ([1]; shown in µM): > 117.5 µM
- Modal MIC [2, 19]: > 128 µg/mL
- Modal MIC ([2]; shown in µM): > 117.5 µM
- Modal MIC [3, 19]: > 128 µg/mL
- Modal MIC ([3]; shown in µM): > 117.5 µM
- Modal MIC [4, 19]: > 128 µg/mL
- Modal MIC ([4]; shown in µM): > 117.5 µM
- Modal MIC [5, 19]: > 128 µg/mL
- Modal MIC ([5]; shown in µM): > 117.5 µM
- Modal MIC [6, 19]: > 128 µg/mL
- Modal MIC ([6]; shown in µM): > 117.5 µM
- Modal MIC50 [7]: > 117.5 µM
- Modal MIC90 [7]: > 117.5 µM
- Modal MIC50 [8]: > 117.5 µM
- Modal MIC90 [8]: > 117.5 µM
- Modal MIC50 [9]: > 117.5 µM
- Modal MIC90 [9]: > 117.5 µM
- Modal MIC50 [10]: > 117.5 µM
- Modal MIC90 [10]: > 117.5 µM
- Modal MIC50 [11]: > 117.5 µM
- Modal MIC90 [11]: > 117.5 µM
- Modal MIC50 [12]: > 117.5 µM
- Modal MIC90 [12]: > 117.5 µM

Compound: NC[C@H]1O[C@H](O[C@H]2[C@H](O)[C@@H](O[C@H]3O[C@H](CO)[C@@H](O)[C@H](N)[C@H]3O)[C@H](N)C[C@@H]2N)[C@H](N)C[C@@H]1O [Tobramycin, reference compound]
- MIC ([13]; Escherichia coli, LEC001, 20 h, read-out: Modal MIC): 8 µg/mL (≈ 17.1 µM)
- MIC ([14]; Escherichia coli, NCTC12923, 20 h, read-out: Modal MIC): 16 µg/mL (≈ 34.2 µM)
- MIC ([1]; Pseudomonas aeruginosa, NCTC13437, 20 h, read-out: Modal MIC): 64 µg/mL (≈ 137 µM)
- MIC ([15]; Pseudomonas aeruginosa, PAO1, 20 h, read-out: Modal MIC): 2 µg/mL (≈ 4.28 µM)
- MIC ([16]; Acinetobacter baumannii, ATCC17978, 20 h, read-out: Modal MIC): 4 µg/mL (≈ 8.56 µM)
- MIC ([2]; Acinetobacter baumannii, 20 h, read-out: Modal MIC): 64 µg/mL (≈ 137 µM)
- MIC ([17]; Klebsiella pneumoniae, M6, 20 h, read-out: Modal MIC): 8 µg/mL (≈ 17.1 µM)
- MIC ([3]; Klebsiella pneumoniae, NCTC13368, 20 h, read-out: Modal MIC): 64 µg/mL (≈ 137 µM)
- MIC ([4]; Staphylococcus aureus, MRSA, 20 h, read-out: Modal MIC): 0.25 µg/mL (≈ 0.535 µM)
- MIC ([5]; Staphylococcus aureus, 20 h, read-out: Modal MIC): 0.5 µg/mL (≈ 1.07 µM)
- MIC ([18]; Staphylococcus aureus, read-out: Modal MIC): 0.25 to 0.5 µg/mL (≈ 0.535 to 1.07 µM)

Compound: Gentamycin [reference compound]
- Modal MIC ([13]; E. coli LEC001 (R), MHB, 37 °C, 20 h, OD600, min. three biological repeats): 4 µg/mL
- Modal MIC ([14]; E. coli NCTC 12923 (S), MHB, ~5×10^5 CFU/mL, 37 °C, 20 h, OD600, min. three biological repeats): 1 µg/mL
- Modal MIC [1, 19]: 256 µg/mL
- Modal MIC ([15]; P. aeruginosa PAO1 (S), MHB, 37 °C, 20 h, OD600, min. three biological repeats): 4 µg/mL
- Modal MIC ([16]; A. baumannii ATCC 17978 (S), MHB, 37 °C, 20 h, OD600, min. three biological repeats): 0.5 µg/mL
- Modal MIC [2, 19]: > 512 µg/mL
- Modal MIC ([17]; K. pneumoniae M6 (S), MHB, 37 °C, 20 h, OD600, min. three biological repeats): 0.25 µg/mL
- Modal MIC [3, 19]: 4 µg/mL
- Modal MIC [4, 19]: 0.25 µg/mL
- Modal MIC [5, 19]: 0.25 µg/mL
- Modal MIC [6, 19]: 4 µg/mL
- Modal MIC ([18]; S. aureus (MSSA) ATCC 9144 (S), MHB, 37 °C, OD600, min. three biological repeats): 0.25 µg/mL
